Source: patent publication US20030134784A1, “Nucleic acids and corresponding proteins entitled 83P2H3 and CaTrF2E11 useful in treatment and detection of cancer” (priority 2000, published 2003)

Legend:
PC3-neo cells = experiment: ERK phosphorylation in response to ion channel activators (anti-phospho-ERK Western blotting); assay type: cell-based, human; settings: PC3-neo cells grown in 0.1% FBS, treated for 5 min
Text: (§1) FIG. 22. Mediation of ERK phosphorylation by hCaT via a variety of ion channel activators. Control and 83P2H3/hCaT-expressing PC3 cell were compared for their ability to induce ERK phosphorylation in response to ion channel activators known to regulate intracellular calcium levels in several cell types. […] Whole cell lysates were separated by SDS-PAGE and analyzed by Western blotting using an anti-phospho-ERK monoclonal antibody (New England Nuclear, Bedford, Mass.). Anti-ERK overlays were used to evaluate protein loading.
(§2) Many mammalian proteins have been reported to interact with signaling molecules and to participate in regulating signaling pathways (J Neurochem. 2001; 76:217-223). Using immunoprecipitation and Western blotting techniques, proteins are identified that associate with 83P2H3 and mediate signaling events. Several pathways known to play a role in cancer biology can be regulated by several of these genes, including phospholipid pathways such as P13K, AKT, etc, adhesion and migration pathways, including FAK, Rho, Rac-1, etc, as well as mitogenic/survival cascades such as ERK, p38, etc (Cell Growth Differ. 2000,11:279; J Biol Chem. 1999, 274:801; Oncogene 2000, 19:3003, J. Cell Biol. 1997, 138:913.). Using Western blotting techniques, the ability of 83P2H3 to regulate these pathways is examined. Cells expressing 83P2H3 and cells lacking these genes are either left untreated or stimulated with ions, channel activators, or antibodies. Cell lysates are analyzed using anti-phospho-specific antibodies (Cell Signaling, Santa Cruz Biotechnology) in order to detect phosphorylation and regulation of ERK, p38, AKT, P13K, PLC and other signaling molecules.

[1] = system: 83P2H3/hCaT-expressing PC3 cell; experiment: as above; assay type: cell-based, human; settings: hCaT-expressing PC3 cells grown in 0.1% FBS, treated for 5 min
Text: as §1, §2

HLA-DR = settings: cited from earlier work
T helper lymphocytes = settings: regardless of HLA type; cited from earlier work

Row | Compound | ERK phosphorylation (PC3-neo cells) | ERK phosphorylation [1] | Binding to HLA-DR alleles (HLA-DR) | Stimulation of the response of T helper lymphocytes (T helper lymphocytes)
1 | CCCCCCCCCCCCCC(=O)O[C@@H]1[C@@H](C)[C@@]2(O)[C@@H](C=C(CO)C[C@]3(O)C(=O)C(C)=C[C@@H]23)[C@@H]2C(C)(C)[C@]12OC(C)=O [PMA] | induced ERK phosphorylation | induced ERK phosphorylation | – | –
2 | C[C@H](CCC(=O)O)C[C@H](C)C[C@H](C)C(=O)/C=C(\O)[C@H](C)C[C@H](C)C/C=C/[C@@H](C)[C@@H](O)[C@@H](C)[C@@H](O)C[C@@H]1CC[C@@](C)([C@H]2CC[C@@](C)([C@@H](C)O)O2)O1 [ionomycin] | – | induced ERK phosphorylation | – | –
3 | LPA | – | induced ERK phosphorylation | – | –
4 | aKXVAAWTLKAAa | – | – | bind to most HLA-DR alleles | stimulate the response of T helper lymphocytes from most individuals
